Measured values: patent US20180312473A1, “PHENAZINE DERIVATIVES AS ANTIMICROBIAL AGENTS” (priority 2015, published 2018)
In brackets after ≈: the same amount, converted by molar mass. Read-outs that look alike come from different tables or passages of the source.

Legend:
[1] = tested on: Staphylococcus epidermidis (ATCC 35984), MRSE; experiment: MIC assay (broth microdilution, CLSI); format: cell-based; settings: Staphylococcus epidermidis, Table 7; read-out: MIC, MRSE 35984
MRSA BAA-1707 = experiment: MIC assay (broth microdilution, CLSI); settings: Staphylococcus aureus, read-out: MIC, MRSA BAA-1707
[2] = tested on: MRSA-2 planktonic cells and biofilms; experiment: Calgary Biofilm Device (CBD) assay, MBC/MBEC; format: cell-based, Staphylococcus aureus; settings: Staphylococcus aureus, MRSA
[3] = tested on: Staphylococcus epidermidis (ATCC 12228); experiment: MIC assay (broth microdilution, CLSI); format: cell-based; settings: Staphylococcus epidermidis, ATCC12228
[4] = tested on: methicillin-resistant S. aureus (MRSA) strains; experiment: MIC assay, values summarised over MRSA strains; format: cell-based, Staphylococcus aureus
[5] = tested on: MRSA BAA-1707 planktonic cells and biofilms; experiment: Calgary Biofilm Device (CBD) assay, MBC/MBEC; settings: Staphylococcus aureus, read-out: MRSA BAA-1707 MBC
human red blood cells = experiment: Hemolysis assay with red blood cells; settings: human, 1 h, 200 μM, pH 7.2
Summary of the method: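 Hemolysis expressed as percent of the Triton X signal with DMSO as zero, using OD405 of supernatant. Compounds from DMSO stocks were incubated with triple-washed human erythrocytes for 1 hour at 37° C. before centrifugation; three independent experiments.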

[6] = tested on: VRE (E. faecium ATCC 700221) planktonic cells and biofilms; experiment: Calgary Biofilm Device (CBD) assay, MBC/MBEC; format: cell-based, Enterococcus faecium; settings: c lowest concentration tested; for MBC: Enterococcus
[7] = tested on: MRSA-1 (methicillin-resistant Staphylococcus aureus clinical isolate); experiment: MIC assay (broth microdilution, CLSI); format: cell-based; settings: read-out: MIC, MRSA-1
[8] = tested on: Enterococcus faecium (ATCC 700221), VRE; experiment: MIC assay (broth microdilution, CLSI); format: cell-based
MRSA BAA-44 = experiment: MIC assay (broth microdilution, CLSI); settings: Staphylococcus aureus, read-out: MIC, MRSA BAA-44
[9] = tested on: MRSA-2 (methicillin-resistant Staphylococcus aureus clinical isolate); experiment: MIC assay (broth microdilution, CLSI); format: cell-based; settings: Staphylococcus aureus, MRSA
[10] = tested on: M. tuberculosis H37Ra (ATCC 25177); experiment: Mycobacterium tuberculosis MIC assay; format: cell-based
Protocol: The culture was then diluted with fresh medium until an OD600 of 0.01 was reached. […] The final DMSO concentration was maintained at 0.5%. […] Three rows were reserved for each compound. […] OD600 absorbance was recorded using SPECTRAMAX M5 (Molecular Devices). Data obtained from three independent experiments were analyzed using Excel.
The culture was then diluted with fresh medium until an OD600 of 0.01 was reached. […] The final DMSO concentration was maintained at 0.5%. […] Three rows were reserved for each compound. […] OD600 absorbance was recorded using SPECTRAMAX M5 (Molecular Devices). Data obtained from three independent experiments were analyzed using EXCEL.

[11] = tested on: MRSA BAA-44 planktonic cells and biofilms; experiment: Calgary Biofilm Device (CBD) assay, MBC/MBEC; settings: Staphylococcus aureus, read-out: MRSA BAA-44 MBC
HeLa cells = experiment: in vitro; format: cell-based; settings: human, 24 h
in vitro = format: cell-based; settings: human
[12] = tested on: MRSE (S. epidermidis ATCC 35984) planktonic cells and biofilms; experiment: Calgary Biofilm Device (CBD) assay, MBC/MBEC; format: cell-based, Staphylococcus epidermidis; settings: for MBC: Staphylococcus epidermidis
[13] = tested on: S. aureus clinical isolate SA 129; experiment: MIC assay (broth microdilution, CLSI); settings: Staphylococcus aureus, read-out: MIC, SA 129
[14] = tested on: S. aureus clinical isolate SA 138; experiment: MIC assay (broth microdilution, CLSI); settings: Staphylococcus aureus, read-out: MIC, SA 138
P. aeruginosa (PAO1) = experiment: MIC assay (broth microdilution, CLSI); format: cell-based; settings: Pseudomonas aeruginosa, PAO1; read-out: PAO1 MIC
E. coli UAEC-1 = experiment: MIC assay (broth microdilution, CLSI); format: cell-based; settings: Escherichia coli, UAEC1; read-out: E. coli UAEC-1 MIC
A. baumannii 19606 = experiment: MIC assay (broth microdilution, CLSI); format: cell-based, Acinetobacter baumannii; settings: Acinetobacter baumannii, 19606; read-out: A. baumannii 19606 MIC
E. faecium 700221 (VRE) = experiment: MIC assay with Tiron or metal(II) cation co-treatment; format: cell-based, Enterococcus faecium; settings: Enterococcus faecium, VRE
K. pneumoniae 13883 = experiment: MIC assay (broth microdilution, CLSI); format: cell-based, Klebsiella pneumoniae; settings: Klebsiella pneumoniae, 13883; read-out: K. pneumoniae 13883 MIC
MRSA-2 = experiment: MIC assay with Tiron or metal(II) cation co-treatment; format: cell-based, Staphylococcus aureus; settings: Staphylococcus aureus; MRSA-2, 200 μM iron(II); read-out: MIC with Fe^2+
[15] = tested on: MRSA-2 persister cells (stationary cultures); settings: 100 μM; for MRSA-2 stationary killing: reduction of viable cells over 24 h
[16] = Spectrophotometric determination of dissociation constants (pKa); format: physicochemical; settings: UV-vis at varying pH, 1:1 water:methanol buffers
Protocol: Dissociation constants (pKa) for select analogues were determined by implementing UV-vis spectroscopy at varying pH values. Buffers were prepared using potassium phosphate monobasic (KH2PO4) and sodium phosphate dibasic (Na2HPO4) in a 1:1 solution of water:methanol to achieve a pH range of 3.78 to 10.94. Compounds were added from 10 mM stock solutions in dimethyl sulfoxide (12.5 μL) to 987.5 μL of each buffer to yield a final compound concentration of 125 μM. Full spectral scans were performed for each evaluated analogue at pH 3.78 and pH 10.94 from 300 to 800 nm to determine λmax values for the protonated phenol (HA; e.g., HP 2 below) and the deprotonated phenolate species (A^−; e.g., conjugate base of HP 2 below). The change in absorption at each determined λmax in relation to pH was then monitored in each buffer and then plotted as absorbance versus pH for each species. The pKa was first estimated by determining the pH of the point of intersection of the two linear curves as shown. The visual estimation was confirmed by plotting pH versus log [A^−/HA]. The resulting plot yielded a linear regression line with a Y-intercept corresponding to a calculated pKa value.

[17] = Table 8, a/b 2-/4-fold range in independent experiments, read-out: MRSA-2 MBC
[18] = Table 7, b lowest concentration tested, read-out: MIC, S. epidermidis 12228
[19] = Table 8, read-out: VRE 700221 MBC
[20] = Enterococcus faecium, Table 2A, read-out: MIC, Enterococcus faecium (ATCC 700221)
[21] = Enterococcus faecium, Table 2B, b lowest concentration tested, read-out: MIC, Enterococcus faecium (ATCC 700221)
[22] = Table 7, b lowest concentration tested, read-out: MIC, VRE 700221
[23] = Table 8, read-out: MRSE 35984 MBC

SMILES | MIC (MRSA BAA-1707) | MBC [2, 17] | melting point | MIC [3, 18] | growth inhibition activity against at least one MRSA strain [4] | MBC [5] | % Hemolysis at 200 μM (human red blood cells) | MBC [6, 19] | MIC [8, 20] | MIC [8, 21] | MIC [8, 22] | MIC (MRSA BAA-44) | % Hemolysis (200 μM) (human red blood cells) | MBC [11] | IC50 (HeLa cells) | IC50 at 24 h (in vitro) | MBC [12, 23] | other results
Oc1c(Br)cc(Br)c2nc3ccc(Br)cc3nc12 [Compound 18, 2,4,8-Tribromo-1-hydroxyphenazine] | 0.2 µM (≈ 0.0866 µg/mL) | 50 µM (≈ 21.6 µg/mL) | 239 to 241 °C | 3.13 µM (≈ 1.35 µg/mL) | sub-micromolar | 12.5 µM (≈ 5.41 µg/mL) | 2.1% |  |  |  |  |  |  |  |  |  |  | MIC [1]: 3.13 µM (≈ 1.35 µg/mL); MIC ([4]; Staphylococcus aureus, MRSA, range over the MRSA strains/isolates tested, read-out: MIC against MRSA strains): 0.15 to 0.78 µM (≈ 0.0649 to 0.338 µg/mL)
Oc1c(Br)cc(Br)c2nc3cc(Br)c(Br)cc3nc12 [Compound 17, 2,4,7,8-tetrabromo-1-hydroxyphenazine] | 12.5 µM (≈ 6.4 µg/mL) |  |  | 0.08 µM (≈ 0.0409 µg/mL) |  | 6.25 µM (≈ 3.2 µg/mL) |  | 0.39 µM (≈ 0.2 µg/mL) | 0.39 µM (≈ 0.2 µg/mL) | 0.39 µM (≈ 0.2 µg/mL) | 0.39 µM (≈ 0.2 µg/mL) | 25 µM (≈ 12.8 µg/mL) | ≤1% | 50 µM (≈ 25.6 µg/mL) | > 100 µM | > 100 µM |  | MBC ([6]; Table 5, read-out: VRE MBC): 0.39 µM (≈ 0.2 µg/mL); VRE MBEC ([6]; Table 5): 0.39/0.39 μM; MIC ([7]; Staphylococcus aureus, MRSA): 12.5 µM (≈ 6.4 µg/mL); MIC ([7]; Table 2B, b lowest concentration tested): 12.5 µM (≈ 6.4 µg/mL); MIC ([9]; read-out: MIC, MRSA-2): 6.25 µM (≈ 3.2 µg/mL); MIC ([9]; read-out: MIC, MRSA-2, Table 2B, a midpoint of 2-fold range, * partial growth inhibition at highest concentration): 6.25 µM (≈ 3.2 µg/mL); MIC ([9]; read-out: MIC, MRSA-2, Table 7, a midpoint of 2-fold range, b lowest concentration tested): 6.25 µM (≈ 3.2 µg/mL); MIC ([10]; Mycobacterium tuberculosis, 168 h, M. tuberculosis H37Ra, 7 days, read-out: Mtb MIC): > 50 µM; MIC ([10]; Mycobacterium tuberculosis, Table 7, read-out: MIC, M. tuberculosis H37Ra): > 50 µM; MIC ([10]; Table 7, read-out: MIC, M. tuberculosis H37Ra): >50 µM; MIC ([3]; Table 2A, read-out: MIC, Staphylococcus epidermidis (ATCC 12228)): 0.05 to 0.1 µM (≈ 0.0256 to 0.0512 µg/mL); MBC ([12]; read-out: MBC, Staphylococcus epidermidis (ATCC 35984)): 1.56 µM (≈ 0.798 µg/mL); MBC ([12]; read-out: MRSE 35984 MBC): 1.56 µM (≈ 0.798 µg/mL); MBC ([12]; read-out: MRSE MBC): 1.56 µM (≈ 0.798 µg/mL); MBEC, Staphylococcus epidermidis (ATCC 35984) ([12]; Table 4): 6.25 µM; MRSE MBEC ([12]; Table 5): 6.25 µM
CCCCc1cc(Br)c(O)c2nc3ccccc3nc12 [Compound 22, 2-Bromo-4-butyl-1-hydroxyphenazine] |  | 46.9 µM (≈ 15.5 µg/mL) | 135 to 137 °C |  |  | 46.9 µM (≈ 15.5 µg/mL) |  | 2 µM (≈ 0.662 µg/mL) |  |  | 0.78 µM (≈ 0.258 µg/mL) |  |  |  |  |  | 11.7 µM (≈ 3.88 µg/mL) | MIC [13]: 1.17 µM (≈ 0.388 µg/mL); MIC [14]: 3.13 µM (≈ 1.04 µg/mL)
Oc1c(Br)cc(I)c2nc3ccccc3nc12 [Compound 8, 2-Bromo-4-iodo-1-hydroxyphenazine] |  | 31.3 µM (≈ 12.6 µg/mL) | 186 to 188 °C |  | sub-micromolar | 23.5 µM (≈ 9.42 µg/mL) | 2.9% | 3 µM (≈ 1.2 µg/mL) | 6.25 µM (≈ 2.51 µg/mL) |  | 6.25 µM (≈ 2.51 µg/mL) | 1.17 µM (≈ 0.469 µg/mL) | 2.9% | 46.9 µM (≈ 18.8 µg/mL) | > 100 µM | > 100 µM | 11.7 µM (≈ 4.69 µg/mL) | MIC (P. aeruginosa (PAO1)): > 100 µM; MIC (E. coli UAEC-1): > 100 µM; MBC ([2]; Table 4, read-out: MBC, MRSA-2): 31.3 µM (≈ 12.6 µg/mL); MIC (A. baumannii 19606): 50 µM (≈ 20.1 µg/mL); MIC (E. faecium 700221 (VRE); E. faecium 700221, 200 μM CuSO4, read-out: MIC with Cu^2+): 3.13 µM; MIC (E. faecium 700221 (VRE); E. faecium 700221, 1 mM Tiron, read-out: MIC with Tiron): 3.13 µM; MIC (E. faecium 700221 (VRE); E. faecium 700221, no additive, read-out: MIC): 3.13 µM; MIC (K. pneumoniae 13883): > 100 µM
CC(=O)NC[C@H]1CN(c2ccc(N3CCOCC3)c(F)c2)C(=O)O1 [Linezolid, linezolid, reference compound] |  |  |  |  |  | 31.3 µM (≈ 10.6 µg/mL) |  | 469 µM (≈ 158 µg/mL) |  | 3.13 µM (≈ 1.06 µg/mL) | 3.13 µM (≈ 1.06 µg/mL) |  | ≤1% |  |  |  |  | MIC (MRSA-2): 6.25 µM; MIC ([9]; Table 7, a midpoint of 2-fold range, b lowest concentration tested, read-out: MIC, MRSA-2): 3.13 µM (≈ 1.06 µg/mL); log reduction of MRSA-2 persisters after 3 hours ([15]; 3 hours): 2 log; MRSA-2 stationary killing [15]: ~1 log; MRSA-2 stationary killing ([15]; listed as linezolid): 1 log
O=[N+]([O-])c1ccc(O)cc1 [4-nitrophenol, reference compound] |  |  |  |  |  |  |  |  |  |  |  |  |  |  |  |  |  | pKa [16]: 7.62
